From US20260199294A1, “PEPTIDE DRUG CONJUGATES” (Oncopeptides Innovation AB, priority 2022, published 2026)
“Also recorded” adds a separate entry of the source.

Experiments:
[1] = system: mitochondrial DNA (mtDNA) prepared from MM.1S cells; test: Direct DNA damage, PCR amplification with mtDNA primers; assay type: biochemical, human; settings: 0.25 μM compound, 30 minutes at 37° C.
Method: (§1) Method: DNA was prepared from MM.1S cells by QIAGEN genomic tip 20/G according to protocol described in Furda et al., Methods Mol Biol, 2012. 1 μg of DNA was treated with 0.25 μM compound for 30 minutes at 37° C. DMSO was used as control treatment. 20 ng of the treated DNA was PCR amplified using Phusion Hot Start II High Fidelity PCR Master Mix (Thermo Scientific) and primers directed to either HPRT or primers directed to mitochondrial DNA (mtDNA) was used, generating 10.4 or 8.9 kb fragments, respectively. The PCR reactions were separated on a 1% agarose gel and visualized by ChemiDoc™ MP Imaging System (BioRad). Example compounds 1, 2 and 38 were investigated, as were compounds 18 and 20, which are metabolites of compound 1. They were compared with bendamustine, melphalan and DMSO control. The results for compounds 1, 2, 18 and 20 with the HPRT primers are shown in FIG. 4(A); the results with the mtDNA primers are shown in FIG. 4(B).

MM.1S cells [2] = test: DNA fragmentation, APO-BrdU TUNEL assay by FACS; assay type: cell-based, human
Method: Method: 1×10^6 MM.1S cells (CRL-2974, ATCC) were treated with Example compound 1 or Bendamustine at 0.006, 0.06, 0.6 or 6 μM for 24 h. After incubation, the cells were washed with PBS (10010-015, Gibco), fixed in Flow Cytometry Fixation Buffer (FC004, R&D Systems) for 10 min and stored in 70% ethanol at −20° C. overnight. The deoxythymidine analog (BrdUTP) was present in the experiment and served to label the DNA break sites. Next day, the cells were washed and stained using an APO-BrdU™ TUNEL Assay Kit, according to the manufacturer's protocol (A23210, Invitrogen), followed by the analysis using BD FACSCanto™ II. The percentage ofTUNEL positive cells indicates the percentage of cells with fragmented DNA.

[3] = system: SU-DHL-4 human lymphoma cell line xenografts; test: Chicken embryo (in ovo) xenograft model, tumour weight; assay type: in vivo; settings: 8.4, 33.5, 167.5 μM
Method: Methods: Inoculation of Fertilized White Leghorn eggs was performed with 3×10^6 SU-DHL-4 tumour cells on day 9 (post-fertilisation). Viable eggs were injected with 100 μL of either Example compound 1 (8.4 μM (0.008 mg/kg), 33.5 μM (0.033 mg/kg), 167.5 μM (0.164 mg/kg)), bendamustine (8.4 μM (0.005 mg/kg), 33.5 μM (0.02 mg/kg), 167.5 μM (0.1 mg/kg)) or vehicle on day 11, 13, 15 and 17. On day 18, tumours were removed and weighed.

[4] = Stability of Example compound 1 in solution with various excipients (HPLC); assay type: physicochemical; settings: 0.4 mg/mL
Method: Ethyl (2S)-2-[[(2S)-2-amino-4-[5-[bis(2-chloroethyl)amino]-1-methyl-benzimidazol-2-yl]butanoyl]amino]-4-methyl-pentanoate (Example compound 1; 19.2 mg, 16.7 mg free base) was dissolved in dimethylacetamide (419 μL) to give a 40 mg/mL stock solution.
Solutions of 0.4 mg/mL of Example compound 1 were prepared by diluting the stock solution in dimethylacetamide (40 mg/mL, 10 μL) with different solutions (990 μL) according to the Table 5 and the stability after 4 h at room temperature was analyzed by HPLC (Analytical HPLC was carried out on an Agilent Series 1100 system using a Kinetex XB C18 (2.6 μm, 3.0×50 mm) column with 0.1% TFA in H2O/CH3CN as mobile phase (acid conditions) (flow 1 mL/min). The excipients were reported in weight ratio excipient:Example compound 1 (free base).

MM.1S cells [5] = test: Cellular retention/efflux: intracellular and extracellular concentrations by LC-MS/MS; assay type: in vitro ADME, human; settings: MM.1S cells
Method: Methods: MM.1S cells at 2×10^6 cells/mL were seeded at 250 μL per well in a 96-well plate. Cells were incubated in the presence of a test compound for 5, 15, and 60 min before pelleting cells by centrifugation at +4° C. for 5 min. Cell media was immediately harvested to a second plate and stored at −80° C. until further analysis. Pelleted cells were washed once with ice cold PBS before storage at −80° C. until further analysis.
Cells were lysed and protein in the media were precipitated using acetonitrile dimethylformamide, 9:1 containing internal standard. Samples were centrifuged and the supernatant was analyzed with LC-MS/MS (ACQUITY UPLC-Xevo TQ-S micro) to determine compound concentration.
Example compound 1, bendamustine and melphalan were used as test compounds.
Method: Method described in Biological example 3.
Example compounds 1, 2, 3, 4, 6, 7 and 10 were investigated. Intracellular metabolites are formed from all compounds tested. The compound used for cell treatment was metabolised to the ester-hydrolysed compound (here called Metabolite A) and to the amide-hydrolysed compound (called Metabolite B). The example compound structures and the structures of the two metabolites for the respective compounds were as shown in Table 4. The Metabolites B formed under the conditions tested were compounds with structure as Examples 17 and 18: […]

[6] = system: nuclear DNA (HPRT) prepared from MM.1S cells; test: Direct DNA damage, PCR amplification with HPRT primers; assay type: biochemical, human; settings: 0.25 μM compound, 30 minutes at 37° C.
Method: as §1

SMILES: CCOC(=O)[C@H](CC(C)C)NC(=O)[C@@H](N)CCc1nc2cc(N(CCCl)CCCl)ccc2n1C [Example compound 1, Ethyl (2S)-2-[[(2S)-2-amino-4-[5-[bis(2-chloroethyl)amino]-1-methyl-benzimidazol-2-yl]butanoyl]amino]-4-methyl-pentanoate]
- DNA damage on mitochondrial DNA (8.9 kb PCR band) [1]: strong DNA damaging effect
- cells with DNA breaks (MM.1S cells [2]; 0.6 μM for 24 h): > 90%
- dose response effect on DNA damage (TUNEL positive cells) (MM.1S cells [2]; 0.006, 0.06, 0.6 or 6 μM for 24 h): induced DNA damage in a dose-dependent manner
- effect on tumour weight / tumour growth (in words) [3]: dose dependent effect on tumour weight; also recorded: particularly effective at inhibiting tumor growth
- Ex 1 remaining after 4 h at room temp (%) ([4]; 2-Hydroxypropyl-β-cyclodextrin (Kleptose), Ultrapure water (MilliQ), weight ratio excipient:Ex 1 5): 78%
- Ex 1 remaining after 4 h at room temp (%) ([4]; 2-Hydroxypropyl-β-cyclodextrin (Kleptose), Ultrapure water (MilliQ), weight ratio excipient:Ex 1 10): 84%
- Ex 1 remaining after 4 h at room temp (%) ([4]; 2-Hydroxypropyl-β-cyclodextrin (Kleptose), Ultrapure water (MilliQ), weight ratio excipient:Ex 1 20): 85%
- Ex 1 remaining after 4 h at room temp (%) ([4]; 2-Hydroxypropyl-γ-cyclodextrin, Ultrapure water (MilliQ), weight ratio excipient:Ex 1 5): 82%
- Ex 1 remaining after 4 h at room temp (%) ([4]; 2-Hydroxypropyl-γ-cyclodextrin, Ultrapure water (MilliQ), weight ratio excipient:Ex 1 10): 86%
- Ex 1 remaining after 4 h at room temp (%) ([4]; 2-Hydroxypropyl-γ-cyclodextrin, Ultrapure water (MilliQ), weight ratio excipient:Ex 1 20): 79%
- Ex 1 remaining after 4 h at room temp (%) ([4]; Betadex Sulfobutyl Ether Sodium (Dexolve), Ultrapure water (MilliQ), weight ratio excipient:Ex 1 5): 99%
- Ex 1 remaining after 4 h at room temp (%) ([4]; Betadex Sulfobutyl Ether Sodium (Dexolve), Ultrapure water (MilliQ), weight ratio excipient:Ex 1 10): 101%
- Ex 1 remaining after 4 h at room temp (%) ([4]; Betadex Sulfobutyl Ether Sodium (Dexolve), Ultrapure water (MilliQ), weight ratio excipient:Ex 1 20): 98%
- Ex 1 remaining after 4 h at room temp (%) ([4]; excipient None, solvent 0.9% Saline, ratio 0): 93%
- Ex 1 remaining after 4 h at room temp (%) ([4]; excipient None, solvent 5% Glucose, ratio 0): 80%
- Ex 1 remaining after 4 h at room temp (%) ([4]; excipient None, solvent DPBS, ratio 0): 10%
- Ex 1 remaining after 4 h at room temp (%) ([4]; excipient None, solvent Dimethylacetamide, ratio 0): 103%
- Ex 1 remaining after 4 h at room temp (%) ([4]; excipient None, solvent Ultrapure water (MilliQ), ratio 0): 85%
- Ex 1 remaining after 4 h at room temp (%) ([4]; γ-Cyclodextrin, Ultrapure water (MilliQ), weight ratio excipient:Ex 1 5): 78%
- Ex 1 remaining after 4 h at room temp (%) ([4]; γ-Cyclodextrin, Ultrapure water (MilliQ), weight ratio excipient:Ex 1 10): 82%
- Ex 1 remaining after 4 h at room temp (%) ([4]; γ-Cyclodextrin, Ultrapure water (MilliQ), weight ratio excipient:Ex 1 20): 86%
- intracellular hydrolysis / metabolite formation (MM.1S cells [5]): hydrolysis of Example compound 1 took place inside the cells
- DNA damage on nuclear DNA (HPRT 10.4 kb PCR band) [6]: strong DNA damaging effect
